Entries after “also recorded” stand apart in the source; their conditions may differ.
Assays:
[1] = system: Ezh2−/− ES cells; experiment: Ezh2−/− ES cells on collagen-IV without LIF; type: cell-based, mouse; details: absence of LIF
Method: Ezh2^−/− ES Cells. Ezh2^−/− cells, passage 6, were maintained on irradiated MEF feeders in standard ES medium (DMEM; Dulbecco's modified Eagle's medium) supplemented with 15% heat-inactivated fetal calf serum, 0.1 mM 2-mercaptoethanol, 2 mM L-glutamine, 0.1 mM non-essential amino acid, 1% of nucleoside mix (100× stock, Sigma), 1000 U/mi LIF and 50 U/ml Penicillin/Streptomycin. For experiments involving Gö6983, Ezh2^−/− cells were passed once without feeders and used for subsequent analysis. For experiments on collagen IV, ˜3×10^4 Ezh2^−/− cells were plated in each well of a six-well tissue culture plate in the presence or absence of LIF and Gö6983.

[2] = system: human ES cells (H9 cells); experiment: Human ES cells in feeder-free culture, MEF-conditioned medium; type: cell-based
[3] = system: R1 ES cells; experiment: R1 ES cells without LIF and MEF feeder; type: cell-based, mouse
Method: R1 ES Cells. R1 Cells were maintained on MEF feeder in ES-IMDM media supplemented with 15% ES-cell quality serum, 10^5 U/100 ml of LIF. Cells were grown for 3-5 days with change of medium every day. For inducing differentiation in monolayer culture and to determine the effect of Gö6983, cells were cultured at feeder-free condition and without LIF for 7 days.

[4] = system: PKCζkd cells; experiment: PKCζkd cells cultured on collagen IV without LIF; type: cell-based, mouse
From the text: ES Cell Differentiation on Collagen-IV and With Retinoic Acid. To differentiate ES cells in monolayer culture on collagen IV, around 3×10^4 cells per well were transferred to collagen IV-coated 6-well plates (BD Biosciences, Franklin Lakes, N.J.) cultured for 5 days in ES differentiation medium containing DMEM (Invitrogen), 15% FBS (selected for endothelial differentiation, Stem Cell Technologies, Vancouver, BC), sodium pyruvate and L-glutamine with or without LIF and Gö6983, and were recovered by cell dissociation buffer (BD Biosciences, Franklin Lakes, N.J.). For culturing multiple passages with Gö6983 on collagen-IV, the recovered cells were again plated at a density of ˜3×10^4 cells per well and cultured again for 5 days. […] For RA-induced differentiation on monolayer culture, ES cells were treated with all-trans-retinoic acid (Sigma, St. Louis, Mo.) in ethanol at a concentration of 1 μM with or without LIF and Gö6983 for 6 days followed by study of expression of pluripotency markers (by immunofluorescence or western blot or RT-PCR analysis).
RNA Interference and Rescue of PKCζ Expression in RKCζkd Cells. Lentiviral vectors containing short hairpin RNAs (shRNAs) targeting mouse PKCζ mRNA were cloned in pLKO1 (Open Biosystems, Huntsville, Ala.). Lentiviral supernatants were produced in HEK-293T cells according to known methods (Dutta, et al. (2008) supra). […]

[5] = system: NF-κB; experiment: NF-κB5X-Luc reporter activation; type: cell-based, mouse; details: E14 cells
Method: Analysis of NF-κB5X-Luc Reporter Activation. E14 ES or PKCζkd cells (2-4×10^4) were seeded on 24-well plates […]. Cells were transfected with 1 μg of plasmid ([…] NF-kB cis-Reporting System, Stratagene) in OPTI-MEM. Transfection mixture was removed after 5 hours with appropriate media. Luciferase activity was measured 24 hours post-transfection and expressed relative to total protein present in the whole cell lysate.

[6] = system: H3K27me3, EZH2, H3K9Me3, H3K4Me3 at gene loci; experiment: Quantitative ChIP assay of chromatin marks; type: cell-based, mouse
Method: Quantitative ChIP Assay. Real-time PCR-based quantitative ChIP analysis was performed according to known methods (Dutta, et al. (2008) supra). Proliferating E14 cells (+LIF), ES cells differentiated on Collagen-IV with or without Gö6983 were either trypsinized or collected by using cell-dissociaton buffer and protein-DNA crosslinking was conducted by treating cells with formaldehyde at a final concentration of 1% for 10 minutes at room temperature with gentle agitation. Glycine (0.125 M) was added to quench the reaction. Antibodies against EZH2, SUZ12, H3K27Me3, H3K9Me3, and H3K4Me3 were used to immunoprecipitate protein-DNA crosslinked fragments. Immunoprecipitated DNA was analyzed by real-time PCR (ABI 7500, Applied Biosystem, Foster City, Calif.). Samples from three or more immunoprecipitates were analyzed using a standard curve from sonicated total chromatin (input) samples.

[7] = system: ES cells; experiment: Quantitative Clonal Assay (survival at clonal density); type: cell-based, mouse; details: ≦10 μM
Method: Quantitative Clonal Assay. ES and iPS cells were dissociated into single cells using 0.05% trypsin/EDTA and 2-20 cells were plated on each well of a 96-well culture plate. The cells were cultured for 6-7 days, colonies were stained for Nanog, and the number of Nanog positive colonies was counted. […] This procedure was repeated for five consecutive passages (>30 days).

## COc1ccc2c(c1)c(C1=C(c3c[nH]c4ccccc34)C(=O)NC1=O)cn2CCCN(C)C [Gö6983, 3-[1-[3-(dimethylamino)propyl]5-methoxy-1H-indol-3-yl]-4-(1H-indol-3-yl)-1H-pyrrole-2,5-dione]
[1]
  collagen-IV-induced Ezh2−/− cell differentiation: completely inhibited
  marker expression in Ezh2−/− cells on collagen-IV: maintained expression of pluripotency markers without the induction of developmental regulator genes
[2]; MEF-conditioned medium, multiple passages
  undifferentiated morphology and SSEA4 expression of human ES cells: maintained their undifferentiated morphology and expression of pluripotency marker
[2]; versus TeSR1 medium or conditioned medium with bFGF, FIG. 5
  SSEA4 expression in H9 colonies: sustained high levels of SSEA4 expression; also recorded: comparable
[2]; versus conditioned medium alone
  Oct4 protein expression in human ES cells: High levels of Oct4 protein expression
[3]
  maintenance of undifferentiated R1 ES cells: replaced the requirement of LIF and MEF
[4]; FIG. 2C
  expression of pluripotency markers in PKCζkd cells on collagen IV: maintained the expression of pluripotency markers
[4]; without LIF
  differentiation of PKCζkd cells on collagen IV: inhibited differentiation of PKCζkd cells
[5]
  NFκ5x-Luc reporter gene activation: strongly inhibited
[6]
  H3K4 methylation (H3K4Me3) at Oct4 and Nanog loci: high levels of H3K4 methylation
  H3K9 methylation at the Oct4 and Nanog loci: inhibited H3K9 methylation
[6]; mESCs
  H3K27me3 and EZH2 chromatin occupancy at developmental regulator genes: maintained high levels of H3K27me3 and chromatin occupancy
[7]
  loss in ES cell survival at clonal density: no significant loss

Reference: US8193235B2, “Compositions and methods for establishing and maintaining stem cells in an undifferentiated state” (University of Kansas, priority 2009, dated 2012)
